Results from US20250268928A1, “USE OF BACTERIORUBERINS AND GLYCOSYL DERIVATIVES THEREOF TO PREVENT AND TREAT DISEASES INVOLVING DYSREGULATED PROTEIN AGGREGATION, SUCH AS NEURODEGENERATIVE DISEASES” (NAOS INSTITUTE OF LIFE SCIENCE, priority 2020, published 2025).

Assays:
[1] = biological target: T1, Bovine alkaline phosphatase (AP) (Bos taurus, UniProt P19111); experiment: AP-heat test (protection of alkaline phosphatase against heat denaturing, chaperone effect); assay type: biochemical; conditions: 55° C. for 1 hour; all test concentrations (20 μM, 10 μM, 5 μM, 2.5 μM, 1.25 μM); FIG. 2
T1 construct: purchased Sigma P0114
Description: The aim of this study was to compare the protein protection capacities of the various components of an extract of carotenoids of the actinobacterium A. agilis separated by chromatography and HPLC. More specifically, we tested all the major fractions to assess their ability to protect the enzyme alkaline phosphatase: • against denaturing via their effect of protecting proteins from denaturing (AP-heat test) (chaperone effect) • against oxidation (APox test) (Protective effect against oxidative stress).
This test is derived from a modification of the APox test for measuring the protection potential of proteins not just against oxidative stress, but against denaturing (heat stress). In fact, under the effect of heat, proteins are denatured and enzymes lose their activity. […]
• Bovine alkaline phosphatase (AP) (Sigma P0114) • Liquid substrate of alkaline phosphatase (Sigma P7998) • Heating block • Flat-bottomed 96-well plate • Plate reader at 405 nm […]
Read OD at 405 nm for 20 min at 37° C.
The protective power of a “molecule X” against denaturing (PPX) is calculated by taking the ratio of the activity of alkaline phosphatase (PA) at 55° C. […]
The activity of the enzyme for each condition is calculated by taking the mean of the optical density values measured at 405 nm for the replicates, from which values the mean value of what are known as the “blank” wells (reagents alone) is subtracted, i.e.: […]

Murine cortical neurons = experiment: Neural network integrity of cortical neurons damaged by glutamate (MAP-2 immunolabeling); assay type: cell-based; conditions: 48 hours after, FIG. 4
Method: (§1) Murine cortical neurons were cultured as described by Callizot et al., 2013. The cells were mechanically dissociated by three forced passages through the tip of a 10 mL pipette. The cells were then centrifuged at 515×g for 10 minutes at 4° C. The supernatant was removed and the pellet was taken up in a defined culture medium constituted by Neurobasal medium with a 2% solution of B27 supplement, 2 mmol/litre of L-glutamine, 2% of PS solution and 10 ng/ml of BDNF. The viable cells were counted in a Neubauer cytometer, using the trypan blue exclusion test. The cells were seeded in a density of 25000 per well in a 96-well plate pre-coated with poly-L-lysine and were cultured at 37° C. in a CO2 incubator (5%). The medium was changed every two days. The experiments were subsequently carried out on 96-well plates (n=6 culture wells per condition). In the 96 wells of each plate, only 60 were used. The wells in the first and last rows and columns were not used in order to avoid any edge effects and were filled with sterile water.
(§2) The compounds to be tested were dissolved in DMSO and the concentration was adjusted in order to ensure a concentration of DMSO in the culture medium of 0.1%. […]
(§3) For each condition, 30 images per well were automatically recorded using ImageXpress (Molecular Devices) at 20× magnification. […]
(§4) The data were expressed as a percentage of the control. […]

tau protein = experiment: Hyperphosphorylation of tau protein (AT100) in cortical neurons damaged by glutamate; assay type: cell-based, Murine; conditions: % of the negative control (100%=value 0); glutamate 20 μM, 20 min; 48 hours after; SBE 1 μm, BDNF 50 ng/mL; FIG. 5
Method: as §1, §2, §3, §4

[2] = biological target: T1, Bovine alkaline phosphatase (AP); experiment: APox test (protection of alkaline phosphatase against oxidative stress); assay type: biochemical; conditions: hydrogen peroxide/FeO4S, 15 min at 37° C.; all test concentrations (20 μM to 1.25 μM); FIG. 3
Description: The aim of this study was to compare the protein protection capacities of the various components of an extract of carotenoids of the actinobacterium A. agilis separated by chromatography and HPLC. More specifically, we tested all the major fractions to assess their ability to protect the enzyme alkaline phosphatase: • against denaturing via their effect of protecting proteins from denaturing (AP-heat test) (chaperone effect) • against oxidation (APox test) (Protective effect against oxidative stress). This test is described in patent application FR 3002544 A1 and measures the ability of a substance to protect the enzyme alkaline phosphatase from oxidative stress. • Bovine alkaline phosphatase (AP) (Sigma P0114) • Liquid substrate for AP (Sigma P7998) • 30% hydrogen peroxide • FeO4S solution (30 mg in 1 mL H2O) • Flat-bottomed 96-well plate • Plate reader at 405 nm The Following were Deposited in Each Well: • 10 μL of AP diluted to 10^−5 in 10^−2M MgSO4. • 4 μL of test molecule, solvent (negative control) or H2O (positive control)+6 μL of H2O • 30 μL of a hydrogen peroxide solution (from a stock solution composed of 940 μL H2O+40 μL 30% H2O2+20 μL 10^−2 FeO4S) or 30 μL of H2O (positive control) • Allow to incubate for 15 min at 37° C. • Add 50 μL of liquid substrate. • Read OD at 405 nm for 20 min at 37° C. […]

T1 sequence (P19111 20-506 limits assumed): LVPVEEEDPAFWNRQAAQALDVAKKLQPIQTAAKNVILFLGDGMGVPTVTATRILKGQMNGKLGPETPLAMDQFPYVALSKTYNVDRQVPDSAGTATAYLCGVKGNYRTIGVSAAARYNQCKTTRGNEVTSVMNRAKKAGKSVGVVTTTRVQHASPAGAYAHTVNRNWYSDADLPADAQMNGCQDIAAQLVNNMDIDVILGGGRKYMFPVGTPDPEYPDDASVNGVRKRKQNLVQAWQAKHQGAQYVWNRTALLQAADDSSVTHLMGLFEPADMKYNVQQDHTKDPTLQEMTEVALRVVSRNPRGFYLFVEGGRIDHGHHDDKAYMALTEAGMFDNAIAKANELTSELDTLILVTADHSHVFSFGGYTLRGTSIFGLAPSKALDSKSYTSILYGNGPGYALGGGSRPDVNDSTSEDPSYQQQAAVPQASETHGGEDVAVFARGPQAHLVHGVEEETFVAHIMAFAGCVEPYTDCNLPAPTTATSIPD

percentage of protection against oxidative stress (APOX test) [2]	Molecule	percentage protection against heat (AP-heat test) [1]	reduction in neural network density (Murine cortical neurons; glutamate poisoning alone (20 μM, 20 min)/vehicle)	hyperphosphorylation of tau protein (AT100 zone, tau/MAP-2 overlap) (tau protein)	total neural network (MAP-2 positive neural length) (Murine cortical neurons; percentage of control, glutamate 20 μM, 20 min, 1 hour pre-incubation, SBE 1 μm, BDNF 50 ng/mL)
–	Monoglycosylated bacterioruberin [BR-MonoG]	protect the protein more effectively than the BR itself	–	–	–
–	N[C@@H](CCC(=O)O)C(=O)O [Glutamate, reference compound]	–	60%	+193%	–
particularly pronounced	Diglycosylated bacterioruberin [BR-DiG]	protect the protein more effectively than the BR itself	–	–	–
–	BDNF: neurotrophin used as a positive control (protein, UniProt P23560 19-247, looked up) Neurotrophic factor BDNF …: APMKEANIRGQGGLAYPGVRTHGTLESVNGPKAGSRGLTSLADTFEHVIEELLDEDQKVRPNEENNKDADLYTSRVMLSSQVPLEPPLLFLLEEYKNYLDAANMSMRVRRHSDPARRGELSVCDSISEWVTAADKKTAVDMSGGTVTVLEKVPVSKGQLKQYFYETKCNPMGYTKEGCRGIDKRHWNSQCRTTQSYVRALTMDSKKRIGWRFIRIDTSCVCTLTIKRGR	–	–	+121%	85%
